In general, AUC(0-inf) refers to the area under the concentration-time curve extrapolated to infinity. A high value points to more exposure. In general, Cmax refers to the peak of the concentration-time curve. One may read the Tmax as the time at which the peak concentration occurs.

Data on one compound can be found in patent publication US8551937B2, “Peptide having an extending action for half-life of object peptide in plasma” (priority 2008, dated 2013).

The nature of data set [1]: CNP immunoreactivity concentration in plasma after administration to rats (competitive RIA), pharmacokinetic parameters (Example 2). Format: in vivo, rat. The settings on record: for half-life: read-out: T½. As for the experimental part: Pharmacokinetic parameters were calculated from the resulting changes in immunoreactivity concentrations in plasma. At that time, WinNonlin Professional Ver. 4.0.1 (manufactured by Pharsight Corporation, U.S.A.) was used as the analytical software. Method for the calculation of each parameter is mentioned as follows.
Concentration at time 0 (C0; extrapolated value, ng/mL), area under the curve for concentration in plasma vs. time (AUC; ng.min/mL) and quenching half-life (T½; minute(s)) were calculated as follows. C0 was calculated as a value at time by means of extrapolation from the changes in immunoreactivity concentration in plasma at each blood collection period. AUC was calculated by a trapezoidal method using the immunoreactivity concentrations in plasma at all measuring points (t) and an extrapolated value until the infinitive time was determined. T½ was calculated by means of a least-squares method from the inclination of a straight line connecting several points in a disappearing phase of the immunoreactivity concentration in plasma. In the case of a subcutaneous administration, C0 was not determined but the maximum concentration in plasma (Cmax; ng/mL) and the time reaching the maximum concentration in plasma (Tmax; min) were determined.
Changes in CNP immunoreactivity concentration in plasma of native CNP-22 and chimeric peptide (chimeric CNP) where a half-life-extension peptide was added to CNP were investigated.
The experiment was conducted in the same manner as in Example 1 that rats where polyethylene tube was previously inserted into thigh artery were used under an anesthetizing condition with Nembutal and male SD strain rats of 7 weeks age (purchased from Nippon Charles River) were used where one group comprised 3 rats. […] At that time, a rabbit polyclonal antibody (#2) recognizing a ring part of native CNP-22 was used as an antibody and ^125I-[Tyr^0] CNP was used as a labeling compound. Pharmacokinetic analysis was carried out by the same method as in Example 1.

The nature of data set [2]: Antigenicity by indirect ELISA of serum after repeated administration. The settings on record: 0.25 mg/kg subcutaneous twice daily for 29 days, mouse serum. The class given is in vivo. As for the experimental part: In order to investigate whether an antibody to native CNP-22 or chimeric CNP (B) was produced using serum collected from the mice after completion of repeated administration for four weeks in Example 4, antigenicity of each of them was evaluated by means of an indirect ELISA. A peptide solution (100 μL) adjusted to 1.0 ng/μL using 50 mM of […] at pH 8.5 was added to a 96-well plate (manufactured by Nalge Nunc International; Denmark) treated with Maxisoap and subjected to a coating operation overnight at 4° C. A blocking was carried out at room temperature for 1 hour using a 2.0% Block Ace (manufactured by Snow Brand Milk). […] After washing the wells, an anti-mouse IgG HRPAb (manufactured by Zymed Laboratories, U.S.A.) was added thereto. The antigen-antibody reaction was conducted for 1 hour at room temperature, then the wells were washed and a substrate ABTS (manufactured by KPL, U.S.A.) was added thereto.
Background: ELISA stands for enzyme-linked immunosorbent assay.

Data set [3] in a line: CNP immunoreactivity concentration in plasma, half-life after intravenous administration (Example 7). The settings on record: male, SD, rat, in vivo, 10 nmol/kg. The procedure: The experiment was carried out using rats into which polyethylene tube (PE-50 manufactured by Clay Adams) was previously inserted into thigh artery under an anesthetized condition with Nembutal. As to a test system, male SD strain rats (Nippon Charles River) of 7 weeks age were used where one group comprised 3 rats. Native CNP-22 or chimeric CNP in a dose of 10 nmol/kg was administered into tail vein of the rat and the blood before the administration and until 60 minutes after the administration was collected by a polyethylene tube inserted into the thigh artery. To the collected blood were added EDTA (manufactured by Dojin Laboratories) and aprotinin (manufactured by Bayer) as a stabilizer and an anti-coagulant, respectively and the plasma was separated therefrom by centrifugal separation. CNP immunoreactivity concentration in plasma was measured by a competitive radioimmunoassay (RIA). At that time, a rabbit polyclonal antibody (#2) which specifically recognizes the ring partial structure of the native CNP-22 was used as an antibody and, as a labeled compound, ^125I-[Tyr^0] CNP was used.

Data set [4] is described as follows: CNP immunoreactivity concentration in plasma, half-life after intravenous administration (Example 9). The settings on record: male, SD, rat, in vivo, 20 nmol/kg.
[5] abbreviates: rat, plasma, sc, subcutaneous, 0.1 mg/kg, male rats, N = 3, mean ± SD.
Setting [6] is: rat, plasma, intravenous, 0.1 mg/kg, male rats, N = 3, mean ± SD.

In the case of `CC[C@H](C)[C@@H]1NC(=O)[C@H](CCCNC(=N)N)NC(=O)[C@H](CC(=O)O)NC(=O)[C@H](CC(C)C)NC(=O)[C@H](CCCCN)NC(=O)[C@H](CC(C)C)NC(=O)CNC(=O)[C@H](Cc2ccccc2)NC(=O)[C@@H](NC(=O)CNC(=O)[C@H](CCCCN)NC(=O)[C@H](CO)NC(=O)[C@H](CC(C)C)NC(=O)CN)CSSC[C@@H](C(=O)O)NC(=O)CNC(=O)[C@H](CC(C)C)NC(=O)CNC(=O)[C@H](CO)NC(=O)[C@H](CCSC)NC(=O)[C@H](CO)NC(=O)CNC1=O` [Native CNP-22], the AUC(0-inf) in data set [1] (setting [5]) was 17.7 ng·h/mL; in data set [1] (setting [6]), 25.6 ng·h/mL. Besides, in data set [1] (setting [5]), the peak level (Cmax) was 55.6 ± 4.5 ng/mL. The Tmax in data set [1] (setting [5]) was 5 min. Also, the half-life in data set [1] (setting [5]) worked out at 7.8 ± 0.9 min; in data set [1] (setting [6]) it was 2.93 ± 0.23 min; in data set [3], 4.34 min; in data set [4], 1.6 min. In addition, the C0 in data set [1] (rat, plasma, intravenous, 0.1 mg/kg, male rats, N = 3, mean ± SD, extrapolated value) is 1020 ± 273 ng/mL. Also, the “CNP immunoreactivity concentration in plasma” value in data set [1] (subcutaneous, after 60 minutes from the administration) was “almost disappeared”. Also, in data set [2], the antibody value result was “no rise”.
